Assay results reported in PubChem BioAssay AID330 (DTP/NCI, 2004).
“And” between values parts separate entries of the source, which are not always exact repeats. Equal entries are not always repeated. Toxic doses and inconclusive results are not listed.

Tested on: P388 leukemia ip, CD2F1 mice, survival T/C
Assay: NCI In Vivo Anticancer Drug Screen. Data for tumor model P388 Leukemia (intraperitoneal) in CD2F1 (CDF1) mice
Details: endpoint: median survival time, higher = longer survival
In short: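 Mice carrying the transplanted tumor received test compound or vehicle. Survival was recorded in each group, and the value is the treated-group measurement divided by that of the vehicle-treated control group.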

[1] = dose: 50.0 mg/kg/injection, schedule: Q01DX009 (ip), vehicle: saline with Tween-80
[2] = dose: 100.0 mg/kg/injection, schedule: Q01DX009 (ip), vehicle: saline with Tween-80
[3] = dose: 200.0 mg/kg/injection, schedule: Q01DX009 (ip), vehicle: saline with Tween-80
[4] = dose: 50.0 mg/kg/injection, schedule: Q01DX009 (ip), vehicle: Klucel (hydroxypropylcellulose) (HPC)
[5] = dose: 100.0 mg/kg/injection, schedule: Q01DX009 (ip), vehicle: Klucel (hydroxypropylcellulose) (HPC)
[6] = dose: 200.0 mg/kg/injection, schedule: Q01DX009 (ip), vehicle: Klucel (hydroxypropylcellulose) (HPC)
[7] = dose: 50.0 mg/kg/injection, schedule: Q01DX005 (ip), vehicle: saline with Tween-80
[8] = dose: 100.0 mg/kg/injection, schedule: Q01DX005 (ip), vehicle: saline with Tween-80
[9] = dose: 200.0 mg/kg/injection, schedule: Q01DX005 (ip), vehicle: saline with Tween-80
[10] = dose: 6.25 mg/kg/injection, schedule: Q01DX009 (ip), vehicle: saline with Tween-80

Nc1ncnc2nc[nH]c12
T/C (dose: 16.0 mg/kg/injection, schedule: Q01DX009 (ip), vehicle: Klucel (hydroxypropylcellulose) (HPC)): 100 % of control | T/C (dose: 32.0 mg/kg/injection, schedule: Q01DX009 (ip), vehicle: Klucel (hydroxypropylcellulose) (HPC)): 103 % of control and 108 % of control and 109 % of control | T/C (dose: 32.0 mg/kg/injection, schedule: Q01DX009 (ip), vehicle: saline with Tween-80): 106 % of control and 118 % of control | T/C [1]: 99 % of control | T/C (dose: 64.0 mg/kg/injection, schedule: Q01DX009 (ip), vehicle: Klucel (hydroxypropylcellulose) (HPC)): 106 % of control | T/C (dose: 64.0 mg/kg/injection, schedule: Q01DX009 (ip), vehicle: saline with Tween-80): 111 % of control and 97 % of control | T/C [2]: 114 % of control | T/C (dose: 128.0 mg/kg/injection, schedule: Q01DX009 (ip), vehicle: Klucel (hydroxypropylcellulose) (HPC)): 110 % of control | T/C (dose: 128.0 mg/kg/injection, schedule: Q01DX009 (ip), vehicle: saline with Tween-80): 100 % of control and 108 % of control | T/C [3]: 110 % of control | T/C (dose: 256.0 mg/kg/injection, schedule: Q01DX009 (ip), vehicle: Klucel (hydroxypropylcellulose) (HPC)): 88 % of control | T/C (dose: 256.0 mg/kg/injection, schedule: Q01DX009 (ip), vehicle: saline with Tween-80): 118 % of control

CSC(SC)(C(=O)O)c1cc(-c2c(Cl)cccc2Cl)no1
T/C (dose: 60.0 mg/kg/injection, schedule: Q01DX005 (ip), vehicle: saline with Tween-80): 93 % of control | T/C (dose: 120.0 mg/kg/injection, schedule: Q01DX005 (ip), vehicle: saline with Tween-80): 102 % of control

CC1=N/C(=C\c2cccc(Br)c2)C(=O)O1
T/C (dose: 50.0 mg/kg/injection, schedule: Q01DX005 (ip), vehicle: Klucel (hydroxypropylcellulose) (HPC)): 98 % of control | T/C (dose: 100.0 mg/kg/injection, schedule: Q01DX005 (ip), vehicle: Klucel (hydroxypropylcellulose) (HPC)): 98 % of control | T/C (dose: 200.0 mg/kg/injection, schedule: Q01DX005 (ip), vehicle: Klucel (hydroxypropylcellulose) (HPC)): 98 % of control

O=C(Nc1ccccc1)/C(N=Nc1cc(S(=O)(=O)O)ccc1Cl)=N/Nc1cc(S(=O)(=O)O)ccc1Cl
T/C [1]: 98 % of control | T/C [2]: 96 % of control | T/C [3]: 86 % of control

S=C1NC2(CCCCC2)NC12CCCCC2
T/C [4]: 86 % of control | T/C [5]: 93 % of control | T/C [6]: 98 % of control | T/C (dose: 400.0 mg/kg/injection, schedule: Q01DX009 (ip), vehicle: Klucel (hydroxypropylcellulose) (HPC)): 93 % of control

O=C1C(c2ccccc2)=C(c2ccccc2)C(=O)N1c1ccccn1
T/C [4]: 94 % of control | T/C [5]: 105 % of control | T/C [6]: 103 % of control

C=C1CC2(CCS(=O)(=O)c3ccccc32)OC1=O (stereo not drawn)
T/C (dose: 12.5 mg/kg/injection, schedule: Q04DX002 (ip), vehicle: saline with Tween-80): 105 % of control | T/C (dose: 25.0 mg/kg/injection, schedule: Q04DX002 (ip), vehicle: saline with Tween-80): 109 % of control | T/C (dose: 50.0 mg/kg/injection, schedule: Q04DX002 (ip), vehicle: saline with Tween-80): 116 % of control

C(=C\CSc1ccccn1)/CSc1ccccn1
T/C (dose: 12.5 mg/kg/injection, schedule: Q01DX009 (ip), vehicle: Klucel (hydroxypropylcellulose) (HPC)): 107 % of control | T/C (dose: 25.0 mg/kg/injection, schedule: Q01DX009 (ip), vehicle: Klucel (hydroxypropylcellulose) (HPC)): 99 % of control | T/C [4]: 90 % of control and 91 % of control | T/C [6]: 91 % of control

CCCC1c2c(ccc3c2OCO3)CC[N+]1(C)CCN(CC)CC (stereo not drawn)
T/C (dose: 6.25 mg/kg/injection, schedule: Q01DX005 (ip), vehicle: saline with Tween-80): 109 % of control | T/C (dose: 12.5 mg/kg/injection, schedule: Q01DX005 (ip), vehicle: saline with Tween-80): 98 % of control | T/C (dose: 25.0 mg/kg/injection, schedule: Q01DX005 (ip), vehicle: saline with Tween-80): 100 % of control and 105 % of control

CC(CCC(=O)O)(c1cc(Br)c(O)c(Br)c1)c1cc(Br)c(O)c(Br)c1
T/C (dose: 100.0 mg/kg/injection, schedule: Q04DX003 (ip), vehicle: other): 100 % of control | T/C (dose: 200.0 mg/kg/injection, schedule: Q04DX003 (ip), vehicle: other): 100 % of control | T/C (dose: 400.0 mg/kg/injection, schedule: Q04DX003 (ip), vehicle: other): 100 % of control

CC(C)C(NC(=O)OC(C)(C)C)C(=O)ON1C(=O)CCC1=O (stereo not drawn)
T/C [1]: 118 % of control | T/C [2]: 111 % of control | T/C [3]: 99 % of control

COc1ccccc1/C=C/C1=C(C)CCC(c2ccccc2OC)C1C (stereo not drawn)
T/C [7]: 90 % of control | T/C [8]: 89 % of control | T/C [9]: 89 % of control

COn1nnc2ccccc21
T/C [1]: 99 % of control | T/C [2]: 104 % of control | T/C [3]: 92 % of control

CCCC(=O)NNC(=O)c1ccccn1
T/C (dose: 25.0 mg/kg/injection, schedule: Q01DX009 (ip), vehicle: saline sonified): 90 % of control | T/C (dose: 50.0 mg/kg/injection, schedule: Q01DX009 (ip), vehicle: saline sonified): 95 % of control | T/C (dose: 100.0 mg/kg/injection, schedule: Q01DX009 (ip), vehicle: saline sonified): 100 % of control

O=C(O)C1=COC(OC2OC(CO)C(O)C(O)C2O)C2C(CO)=CCC12 (stereo not drawn)
T/C (dose: 5.0 mg/kg/injection, schedule: Q01DX009 (ip), vehicle: saline with Tween-80): 99 % of control and 108 % of control | T/C (dose: 10.0 mg/kg/injection, schedule: Q01DX009 (ip), vehicle: saline with Tween-80): 108 % of control and 96 % of control | T/C (dose: 20.0 mg/kg/injection, schedule: Q01DX009 (ip), vehicle: saline with Tween-80): 99 % of control and 104 % of control | T/C (dose: 40.0 mg/kg/injection, schedule: Q01DX009 (ip), vehicle: saline with Tween-80): 95 % of control | T/C (dose: 80.0 mg/kg/injection, schedule: Q01DX009 (ip), vehicle: saline with Tween-80): 99 % of control

CCOC(=O)c1ccc(NC(=O)Nc2ncc(Cl)cc2Cl)cc1
T/C [1]: 89 % of control | T/C [2]: 86 % of control | T/C [3]: 94 % of control

CCCCCCCC1C(=O)OC2CC3C(C)=CC(=O)C(O)C3(C)C3C4(O)OCC23C1C(C)C4O (stereo not drawn)
T/C (dose: 1.25 mg/kg/injection, schedule: Q01DX005 (ip), vehicle: Klucel (hydroxypropylcellulose) (HPC)): 107 % of control | T/C (dose: 2.5 mg/kg/injection, schedule: Q01DX005 (ip), vehicle: Klucel (hydroxypropylcellulose) (HPC)): 108 % of control | T/C (dose: 5.0 mg/kg/injection, schedule: Q01DX005 (ip), vehicle: Klucel (hydroxypropylcellulose) (HPC)): 107 % of control and 116 % of control | T/C (dose: 10.0 mg/kg/injection, schedule: Q01DX005 (ip), vehicle: Klucel (hydroxypropylcellulose) (HPC)): 117 % of control and 124 % of control

Cn1cnc2c(N(CCO)CCO)ncnc21
T/C (dose: 50.0 mg/kg/injection, schedule: Q01DX005 (ip), vehicle: distilled water + Tween-80 + alcohol): 109 % of control | T/C (dose: 100.0 mg/kg/injection, schedule: Q01DX005 (ip), vehicle: distilled water + Tween-80 + alcohol): 105 % of control | T/C (dose: 200.0 mg/kg/injection, schedule: Q01DX005 (ip), vehicle: distilled water + Tween-80 + alcohol): 106 % of control

COc1ccc2c(c1OC(C)=O)-c1cc(OC(C)=O)cc3c1C(C2)N(C(=O)CBr)CC3 (stereo not drawn)
T/C [10]: 104 % of control | T/C (dose: 12.5 mg/kg/injection, schedule: Q01DX009 (ip), vehicle: saline with Tween-80): 104 % of control

CCCCCCCCOCC(=O)OC
T/C [1]: 106 % of control | T/C [2]: 107 % of control | T/C [3]: 101 % of control

CS(=O)(=O)O/C=C1/CCOC1=O
T/C (dose: 3.13 mg/kg/injection, schedule: Q01DX009 (ip), vehicle: water): 107 % of control | T/C (dose: 6.25 mg/kg/injection, schedule: Q01DX009 (ip), vehicle: water): 104 % of control | T/C (dose: 12.5 mg/kg/injection, schedule: Q01DX009 (ip), vehicle: water): 102 % of control and 108 % of control | T/C (dose: 25.0 mg/kg/injection, schedule: Q01DX009 (ip), vehicle: water): 120 % of control

COc1ccc2[nH]c3c(c2c1)-c1ncncc1CC3
T/C [7]: 100 % of control | T/C [8]: 97 % of control | T/C [9]: 106 % of control

Cc1c(-c2ccccc2)ccnc1/C=N/NC(=S)Nc1ccc(N(C)C)cc1
T/C (dose: 3.12 mg/kg/injection, schedule: Q01DX009 (ip), vehicle: saline with Tween-80): 119 % of control | T/C [10]: 153 % of control

NC(=O)Nc1cc(NC(N)=O)cc(N(CCCl)CCCl)c1
T/C (dose: 17.8 mg/kg/injection, schedule: Q04DX003 (ip), vehicle: water): 177 % of control | T/C (dose: 20.0 mg/kg/injection, schedule: Q04DX003 (ip), vehicle: water): 173 % of control | T/C (dose: 26.6 mg/kg/injection, schedule: Q04DX003 (ip), vehicle: water): 206 % of control | T/C (dose: 40.0 mg/kg/injection, schedule: Q04DX003 (ip), vehicle: water): 194 % of control and 215 % of control

CC(=O)c1nc2c(N)nc(N)nc2nc1C
T/C (dose: 25.0 mg/kg/injection, schedule: Q04DX003 (ip), vehicle: saline with Tween-80): 96 % of control | T/C (dose: 50.0 mg/kg/injection, schedule: Q04DX003 (ip), vehicle: saline with Tween-80): 96 % of control | T/C (dose: 100.0 mg/kg/injection, schedule: Q04DX003 (ip), vehicle: saline with Tween-80): 96 % of control
